From patent US20250231108A1, “TR[…]” (SUMITOMO CHEMICAL COMPANY, LIMITED, priority 2022, published 2025)

System: TA1537
Assay: Ames test (Ames MPF microplate format) without metabolic activation, toxicity to tester assessed by transparency index T from plate image
Details: for transparency index T: TA1537, no metabolic activation, average of three assessment plates, FIG. 14, T smaller than 1 means high transparency (cells dead)
Method: A tester (bacterium having amino acid-requiring mutation, for example, Salmonella typhimurium: a TA100 strain, a TA98 strain, a TA1535 strain, or a TA1537 strain, Escherichia coli: a WP2uvrA strain or the like) that is used is inoculated in 60 mL of Nutrient broth medium, and is shaken and cultured at 37° C. for 9 to 10 hours to be proliferated.
The test substance prepared in the step 2A is dissolved or suspended in an adequate medium, and the resultant solution is diluted by using the medium in staged to prepare concentration series of the test substance solution. In a case where the same test substance is assessed with six concentrations different from each other, six test substance solutions having concentrations different from each other are prepared.
The medium used in preparation of the test substance solution, the concentration series of the test substance solution, and the solution of the positive control compound (collectively referred to as “test substance solution or the like”) are put into individual wells of a 24-well plate (a plate having 24 wells) by 10 μL.
0.175 to 0.7 mL of the tester culture solution (typically at a concentration exceeding 1×10^9 cells/mL) and 6.83 to 6.3 mL of a medium (minimal medium in which a carbon source is added and which is deficient in amino acid) are mixed. The resultant mixture is referred to as a preparation bacterial solution under conditions of the absence of metabolic activation. […]
Specifically, first, an angle θ1 between the centroid vector V1 and the first reference vector V2 and an angle θ2 between the centroid vector V1 and the second reference vector V3 are compared. In a case where the angle θ1 is equal to or smaller than the angle θ2, a transparency index T is calculated based on an expression (1). In a case where the angle θ2 is larger than the angle θ1, the transparency index T is calculated based on an expression (2). […]

ClCc1ccc(Cl)cc1 [4-chlorobenzyl chloride]
toxicity to the tester (cells) (TA1537, 1.95-2,000 μg/mL in DMSO, no metabolic activation, conclusion from transparency index T): toxic to the tester | transparency index T (section Se6, test substance 500 μg/mL): reduced | transparency index T (section Se7, test substance 2,000 μg/mL): reduced
